The subject of the assay is T1, A. flavipes L-methionine γ-lyase (MGL), free MGL.
T1 construct: native intracellular enzyme purified from A. flavipes mycelium (acetone, Sephadex G100, DEAE-Sepharose); 48 kDa subunit; PLP enzyme; free (not cyclodextrin-conjugated)
Briefly: released thiol/ammonia assay (DTNB), Lineweaver-Burk. Format: biochemical, Aspergillus flavipes. Conditions: free enzyme; standard assay Tris-HCl pH 7.8, 10 μM PLP, 37 °C. The source says: released thiol/ammonia assay (DTNB), Lineweaver-Burk on A. flavipes L-methionine γ-lyase (MGL), free MGL
Consider `NC(CCS)C(=O)O` (racemic) [DL-homocysteine], for which the Km is 12.2 mM.
Turning to `N[C@@H](CS)C(=O)O` [L-cysteine], the Km amounted to 9.5 mM.
For the molecule `CSCC[C@H](N)C(=O)O` [L-methionine], the Km worked out at 7.2 mM.
